Assay results from paper PMC10119930, “Dual Molecules Targeting 5-HT6 and GABA-A Receptors as a New Approach to Combat Depression Associated with Neuroinflammation” (ACS Chemical Neuroscience, 2023).

Experiment: Brain tissue stability assay
Type: in vitro ADME
Settings: brain homogenate in Tris-HCl buffer
Protocol: The quantitative HPLC analyses were acquired using Waters Alliance e2695 separations module (Waters, Milford, CT, USA) containing 2998 photodiode array (PDA), a detector (Waters, Milford, CT, USA), and the SpeedROD RP-18e 50–4.6 mm column (Merck, KGaA, Darmstadt, Germany). The temperature of the column was preserved at 30 °C. […] Each sample was injected at a volume of 10 μL in triplicate. […] The stock solutions were mixed with methanol and diluted, resulting in various solutions with concentrations ranging from 1.0 to 0.125 μg/mL. These solutions were then utilized to generate calibration curves by plotting AUC versus concentration in μg/mL. The examined molecules (2 mg) were dissolved in 1 mL of Dulbecco’s phosphate buffered saline (DPBS). The mixture was then continuously agitated at 22 °C for 24 h using a thermoshaker. Following this period, the mixtures were filtered through a cellulose acetate syringe filter (with a pore size of 0.22 μm), moved to a chromatographic vial, and analyzed. To quantify the investigated compounds, the areas beneath their respective peaks on DAD chromatograms were employed. Solubility was calculated using the calibration curves. Chemical stability assay: Stock solution of 16 in DMSO (10 mg/mL) was used. Next, 25 μL of stock solution was mixed with 975 μL of PBS (Dulbecco’s phosphate-buffered saline, Sigma, Poland). […] HPLC analyses were used to quantify the percentage of molecules that remained at each time point relative to the 0 min time point. Brain tissue stability assay: […] Then, 50 μL of the stock solution was combined with 50 μL of ice-cold 50 mM Tris-HCl buffer (pH 7.4) and 150 μL of brain homogenate (suspended in 20 volumes of 50 mM Tris-HCl buffer, ice cold, pH 7.4). The mix was then incubated at 37 °C and quenched at several time points. To terminate the reaction mixture, 250 μL of the appropriate reaction mixture was mixed with 1000 μL of MeCM in the Eppendorf Tube. Following 10 min of shaking (1500 rpm), samples were centrifuged (10 000 rpm, 10 min, 4 °C) and the acquired supernatant was collected. Before conducting HPLC analysis, the supernatant was filtered via a cellulose acetate syringe filter with a pore size of 0.45 μm and then transferred to a chromatographic vial. HPLC analysis was used to determine the percentage of the tested molecule remaining at each time point, relative to the 0 min time point. Plasma stability assay was performed as described previously.[45] Frozen rat plasma (Wistar) was thawed. […] The samples were collected at relative time points. The reaction was terminated by adding 1200 of μL acetonitrile/methanol mixture (50:50, v/v). The samples were centrifuge at 25 000 rpm for 10 min. HPLC analysis was used to determine the percentage of the tested molecule remaining at each time point relative to the 0 min time point. All the experiments were performed in duplicate.

## Cc1c(OCc2ccccc2)cccc1N1CCN(CCOC(=O)CCCN)CC1.Cl.Cl [Compound 16, 1-(2-((4-Ammoniobutanoyl)oxy)ethyl)-4-(3-(benzyloxy)-2-methylphenyl)piperazin-1-ium Dichloride]
0 min
  % compound remaining (brain homogenate): 100 ± 0.3%
15 min
  % compound remaining (brain homogenate): 97.81 ± 2.1%
30 min
  % compound remaining (brain homogenate): 92.56 ± 1.9%
60 min
  % compound remaining (brain homogenate): 87.12 ± 3.2%
120 min
  % compound remaining (brain homogenate): 49.73 ± 2.4%
240 min
  % compound remaining (brain homogenate): 25.34 ± 1.6%
